For experiment [1], the target named is human JAK1 (a.a. 837-1142) (Homo sapiens, UniProt P23458). Kind of experiment: In vitro JAK kinase assay (HTRF), JAK1. It is filed as biochemical. The note with it: 1 mM ATP. On the technique in general: TR-FRET usually uses a lanthanide donor and a delayed reading to cut background.
Protocol: (§1) The catalytic activity of JAK1, JAK2 or JAK3 are assayed by measuring the phosphorylation of a biotinylated peptide. The phosphorylated peptide was detected by homogenous time resolved fluorescence (HTRF). […] Reactions are carried out at room temperature for 1 hour and then stopped with 20 μL 45 mM EDTA, 300 nM SA-APC, 6 nM Eu-Py20 in assay buffer (Perkin Elmer, Boston, MA). Binding to the Europium labeled antibody takes place for 40 minutes and HTRF signal was measured on a Fusion plate reader (Perkin Elmer, Boston, MA).
For experiment [2], the target named is human JAK2 (a.a. 828-1132) (Homo sapiens (Human), UniProt O60674). Kind of experiment: In vitro JAK kinase assay (HTRF), JAK2. The class given is biochemical. To be noted: JAK2/JAK1 IC50 ratio at 1 mM ATP.
human JAK2 (a.a. 828-1132), sequence (O60674 828-1132): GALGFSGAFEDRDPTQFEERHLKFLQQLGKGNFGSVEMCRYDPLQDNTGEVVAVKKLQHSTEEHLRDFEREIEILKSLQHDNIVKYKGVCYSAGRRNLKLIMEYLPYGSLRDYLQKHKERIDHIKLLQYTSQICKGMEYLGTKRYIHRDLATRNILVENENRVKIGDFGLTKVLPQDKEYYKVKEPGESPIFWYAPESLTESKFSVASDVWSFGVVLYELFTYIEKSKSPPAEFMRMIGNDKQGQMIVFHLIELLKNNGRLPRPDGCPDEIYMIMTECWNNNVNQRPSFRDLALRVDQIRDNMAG
Protocol: as §1

As to `N#CCC1(n2cc(-c3ncnc4[nH]ccc34)cn2)CN(C2CCN(C(=O)c3ccnc(C(F)(F)F)n3)CC2)C1` [Compound 3, [3-[4-(7H-pyrrolo[2,3-d]pyrimidin-4-yl)-1H-pyrazol-1-yl]-1-(1-{[2-(trifluoromethyl)pyrimidin-4-yl]carbonyl}piperidin-4-yl)azetidin-3-yl]acetonitrile], the IC50 in experiment [1] was below 10 nM. Besides, the JAK2/JAK1 in experiment [2] was above 10.

With `N#CCC(CN1CCN(C(=O)c2ccc(C#N)cc2F)CC1)n1cc(-c2ncnc3[nH]ccc23)cn1` (stereo not drawn) [Compound 8, 4-[(4-{3-cyano-2-[4-(7H-pyrrolo[2,3-d]pyrimidin-4-yl)-1H-pyrazol-1-yl]propyl}piperazin-1-yl)carbonyl]-3-fluorobenzonitrile], the half-maximal inhibitory concentration (IC50) in experiment [1] is below 10 nM. Further, the JAK2/JAK1 in experiment [2] is listed as above 10.

In experiment [1], `N#CCC1(n2cc(-c3ncnc4[nH]ccc34)cn2)CN([C@H]2CC[C@@H](Oc3cc(CN4CC[C@H](O)C4)cc(C(F)(F)F)n3)CC2)C1` [Compound 22, {1-(cis-4-{[4-{[(3S)-3-hydroxypyrrolidin-1-yl]methyl}-6-(trifluoromethyl)pyridin-2-yl]oxy}cyclohexyl)-3-[4-(7H-pyrrolo[2,3-d]pyrimidin-4-yl)-1H-pyrazol-1-yl]azetidin-3-yl}acetonitrile] registered an IC50 below 10 nM. In addition, the JAK2/JAK1 in experiment [2] is above 10.

For the compound `N#CC[C@]1(n2cc(-c3ncnc4[nH]ccc34)cn2)C[C@H](N2CCC(Oc3cc(CN4CC(O)C4)cc(C(F)(F)F)n3)CC2)C1` [Compound 11, {trans-3-(4-{[4-[(3-hydroxyazetidin-1-yl)methyl]-6-(trifluoromethyl)pyridin-2-yl]oxy}piperidin-1-yl)-1-[4-(7H-pyrrolo[2,3-d]pyrimidin-4-yl)-1H-pyrazol-1-yl]cyclobutyl}acetonitrile], the IC50 in experiment [1] is below 10 nM. Also, the JAK2/JAK1 in experiment [2] is on record as above 10.

In experiment [1], `N#CCC1(n2cc(-c3ncnc4[nH]ccc34)cn2)CN([C@H]2CC[C@@H](Oc3cc(CCO)nc(C(F)(F)F)n3)CC2)C1` [Compound 18, {1-(cis-4-{[6-(2-hydroxyethyl)-2-(trifluoromethyl)pyrimidin-4-yl]oxy}cyclohexyl)-3-[4-(7H-pyrrolo[2,3-d]pyrimidin-4-yl)-1H-pyrazol-1-yl]azetidin-3-yl}acetonitrile] showed an IC50 below 10 nM. In addition, the JAK2/JAK1 in experiment [2] is above 10.

In experiment [1], `C[C@@H](CO)NCc1cc(OC2CCN([C@H]3C[C@](CC#N)(n4cc(-c5ncnc6[nH]ccc56)cn4)C3)CC2)nc(C(F)(F)F)c1` [Compound 23, {trans-3-(4-{[4-({[(1S)-2-hydroxy-1-methylethyl]amino}methyl)-6-(trifluoromethyl)pyridin-2-yl]oxy}piperidin-1-yl)-1-[4-(7H-pyrrolo[2,3-d]pyrimidin-4-yl)-1H-pyrazol-1-yl]cyclobutyl}acetonitrile] yielded an IC50 below 10 nM. Further, the JAK2/JAK1 in experiment [2] is listed as above 10.

`N#CC[C@]1(n2cc(-c3ncnc4[nH]ccc34)cn2)C[C@H](N2CCC(Oc3cc(CCO)cc(C(F)(F)F)n3)CC2)C1` [Compound 26, {trans-3-(4-{[4-(2-hydroxyethyl)-6-(trifluoromethyl)pyridin-2-yl]oxy}piperidin-1-yl)-1-[4-(7H-pyrrolo[2,3-d]pyrimidin-4-yl)-1H-pyrazol-1-yl]cyclobutyl}acetonitrile]: in experiment [1], the IC50 is below 10 nM. In addition, the JAK2/JAK1 in experiment [2] is given as above 10.

`N#CCC1(n2cc(-c3ncnc4[nH]ccc34)cn2)CN(C2CCN(C(=O)c3ccnc(C(F)(F)F)c3F)CC2)C1` [Compound 4, {1-{1-[3-Fluoro-2-(trifluoromethyl)isonicotinoyl]piperidin-4-yl}-3-[4-(7H-pyrrolo[2,3-d]pyrimidin-4-yl)-1H-pyrazol-1-yl]azetidin-3-yl}acetonitrile]: in experiment [1], the IC50 is below 10 nM. Besides, the JAK2/JAK1 in experiment [2] is on record as above 10.

`CC(C)(O)c1cc(O[C@H]2CC[C@@H](N3CC(CC#N)(n4cc(-c5ncnc6[nH]ccc56)cn4)C3)CC2)nc(C(F)(F)F)c1` [Compound 20, {1-(cis-4-{[4-(1-hydroxy-1-methylethyl)-6-(trifluoromethyl)pyridin-2-yl]oxy}cyclohexyl)-3-[4-(7H-pyrrolo[2,3-d]pyrimidin-4-yl)-1H-pyrazol-1-yl]azetidin-3-yl}acetonitrile] registered an IC50 in experiment [1] below 10 nM. Further, the JAK2/JAK1 in experiment [2] is above 10.

For the compound `N#CCC(CN1CCN(C(=O)c2ccc(C#N)cc2F)CC1)n1ccc(-c2ncnc3[nH]ccc23)c1` (stereo not drawn) [Compound 9, 4-[(4-{3-cyano-2-[3-(7H-pyrrolo[2,3-d]pyrimidin-4-yl)-1H-pyrrol-1-yl]propyl}piperazin-1-yl)carbonyl]-3-fluorobenzonitrile], the IC50 in experiment [1] is below 10 nM. Further, the JAK2/JAK1 in experiment [2] is reported as above 10.

Turning to `N#CCC1(n2cc(-c3ncnc4[nH]ccc34)cn2)CN([C@H]2CC[C@@H](Oc3cc(CN4CC[C@@H](O)C4)cc(C(F)(F)F)n3)CC2)C1` [Compound 21, {1-(cis-4-{[4-{[(3R)-3-hydroxypyrrolidin-1-yl]methyl}-6-(trifluoromethyl)pyridin-2-yl]oxy}cyclohexyl)-3-[4-(7H-pyrrolo[2,3-d]pyrimidin-4-yl)-1H-pyrazol-1-yl]azetidin-3-yl}acetonitrile], in experiment [1], the IC50 was below 10 nM. Moreover, the JAK2/JAK1 in experiment [2] was above 10.

`N#CCC(C1CCN(c2nc3cccnc3o2)C1)n1cc(-c2ncnc3[nH]ccc23)cn1` (stereo not drawn) [Compound 7, 3-(1-[1,3]oxazolo[5,4-b]pyridin-2-ylpyrrolidin-3-yl)-3-[4-(7H-pyrrolo[2,3-d]pyrimidin-4-yl)-1H-pyrazol-1-yl]propanenitrile] came in with an IC50 in experiment [1] below 10 nM. The JAK2/JAK1 in experiment [2] is above 10.

As for `C[C@@H](O)c1nc2cnc3ccsc3c2n1[C@H]1CC[C@H](CC#N)OC1` [Compound 5, ((2R,5S)-5-{2-[(1R)-1-hydroxyethyl]-1H-imidazo[4,5-d]thieno[3,2-b]pyridin-1-yl}tetrahydro-2H-pyran-2-yl)acetonitrile], the IC50 in experiment [1] was below 100 nM. Besides, in experiment [2], the JAK2/JAK1 is listed as above 10.

`N#CCC1(n2cc(-c3ncnc4[nH]ccc34)cn2)CN(C2CCN(C(=O)Nc3ccc(F)cc3C(F)(F)F)CC2)C1` [Compound 2, 4-{3-(Cyanomethyl)-3-[4-(7H-pyrrolo[2,3-d]pyrimidin-4-yl)-1H-pyrazol-1-yl]azetidin-1-yl}-N-[4-fluoro-2-(trifluoromethyl)phenyl] piperidine-1-carboxamide]: in experiment [1], the IC50 is below 10 nM. Besides, the JAK2/JAK1 in experiment [2] is on record as above 10.

In the case of `CCNCc1cc(O[C@H]2CC[C@@H](N3CC(CC#N)(n4cc(-c5ncnc6[nH]ccc56)cn4)C3)CC2)nc(C(F)(F)F)c1` [Compound 19, {1-(cis-4-{[4-[(ethylamino)methyl]-6-(trifluoromethyl)pyridin-2-yl]oxy}cyclohexyl)-3-[4-(7H-pyrrolo[2,3-d]pyrimidin-4-yl)-1H-pyrazol-1-yl]azetidin-3-yl}acetonitrile], the IC50 in experiment [1] is below 10 nM. Moreover, in experiment [2], the JAK2/JAK1 is recorded as above 10.

`N#CC[C@]1(n2cc(-c3ncnc4[nH]ccc34)cn2)C[C@H](N2CCC(Oc3cc(CN4CCC[C@H]4CO)cc(C(F)(F)F)n3)CC2)C1` [Compound 12, {trans-3-(4-{[4-{[(2S)-2-(hydroxymethyl)pyrrolidin-1-yl]methyl}-6-(trifluoromethyl)pyridin-2-yl]oxy}piperidin-1-yl)-1-[4-(7H-pyrrolo[2,3-d]pyrimidin-4-yl)-1H-pyrazol-1-yl]cyclobutyl}acetonitrile]: in experiment [1], the half-inhibitory concentration (IC50) was below 10 nM. Besides, in experiment [2], the JAK2/JAK1 is listed as above 10.

For `C[C@H](NC(=O)c1cc(F)c(N2CC(CC#N)(n3cc(-c4ncnc5[nH]ccc45)cn3)C2)cc1F)C(F)(F)F` [Compound 16, 4-{3-(cyanomethyl)-3-[4-(7H-pyrrolo[2,3-d]pyrimidin-4-yl)-1H-pyrazol-1-yl]azetidin-1-yl}-2,5-difluoro-N-[(1S)-2,2,2-trifluoro-1-methylethyl]benzamide], the IC50 in experiment [1] is below 10 nM. In addition, the JAK2/JAK1 in experiment [2] is above 10.

Turning to `C[C@@H](O)CNCc1cc(OC2CCN([C@H]3C[C@](CC#N)(n4cc(-c5ncnc6[nH]ccc56)cn4)C3)CC2)nc(C(F)(F)F)c1` [Compound 24, {trans-3-(4-{[4-({[(2R)-2-hydroxypropyl]amino}methyl)-6-(trifluoromethyl)pyridin-2-yl]oxy}piperidin-1-yl)-1-[4-(7H-pyrrolo[2,3-d]pyrimidin-4-yl)-1H-pyrazol-1-yl]cyclobutyl}acetonitrile], the IC50 in experiment [1] is below 10 nM. The JAK2/JAK1 in experiment [2] is reported as above 10.

`N#CCC(C1CCN(c2cccc(Cl)n2)C1)n1cc(-c2ncnc3[nH]ccc23)cn1` (single isomer, unassigned) [Compound 6, 3-[1-(6-chloropyridin-2-yl)pyrrolidin-3-yl]-3-[4-(7H-pyrrolo[2,3-d]pyrimidin-4-yl)-1H-pyrazol-1-yl]propanenitrile] registered an IC50 in experiment [1] below 10 nM. For the same compound, the JAK2/JAK1 in experiment [2] is above 10.

`N#CC[C@]1(n2cc(-c3ncnc4[nH]ccc34)cn2)C[C@H](N2CCC(Oc3cc(CN4CCC[C@@H]4CO)cc(C(F)(F)F)n3)CC2)C1` [Compound 13, {trans-3-(4-{[4-{[(2R)-2-(hydroxymethyl)pyrrolidin-1-yl]methyl}-6-(trifluoromethyl)pyridin-2-yl]oxy}piperidin-1-yl)-1-[4-(7H-pyrrolo[2,3-d]pyrimidin-4-yl)-1H-pyrazol-1-yl]cyclobutyl}acetonitrile] had an IC50 in experiment [1] below 10 nM. In experiment [2], the JAK2/JAK1 is listed as above 10.

Consider `N#CC[C@]1(n2cc(-c3ncnc4[nH]ccc34)cn2)C[C@H](N2CCN(C(=O)c3ccnc(C(F)(F)F)n3)CC2)C1` [Compound 10, [trans-1-[4-(7H-pyrrolo[2,3-d]pyrimidin-4-yl)-1H-pyrazol-1-yl]-3-(4-{[2-(trifluoromethyl)pyrimidin-4-yl]carbonyl}piperazin-1-yl)cyclobutyl]acetonitrile], for which the IC50 in experiment [1] is below 10 nM. Besides, the JAK2/JAK1 in experiment [2] is above 10.

One may read the IC50 as the point on the concentration scale where inhibition reaches its midpoint. A higher IC50 goes with weaker potency.

For the origin of these results see patent US12268667B2, “JAK1 pathway inhibitors for the treatment of prurigo nodularis” (Incyte Corporation, priority 2021, dated 2025).
